Values quoted from earlier work, collected in patent publication US12311004B2, “Ophthalmic formulations and methods of use” (VISION SOLUTIONS, LLC, priority 2023, dated 2025).

Columns and labels:
FHV-1 = conditions: low concentrations, in vitro
[1] = oral, cat

NCCCC[C@H](N)C(=O)O [L-lysine]
effect on the replication kinetics of the virus (FHV-1): no effect
daily intake at which arginine deficiency is likely to occur [1]: exceeding 80 g/kg
